Source: patent US4923882A, “Novel amine derivatives, salts thereof and an anti-ulcer agent containing the same” (Toyama Chemical Co., Ltd., priority 1982, dated 1990)

Columns and labels:
[1] = test system: gastric acid secretion; experiment: Inhibitory effect on gastric acid secretion, perfused stomach preparation of anesthetized rat (histamine stimulated); format: in vivo, Wistar strain rats; settings: intravenous; for ED100: Rattus norvegicus, cumulative, histamine 30 μg/kg/min, read-out: Dose for complete inhibition; for Duration: time from complete inhibition until pH of perfusate became 4
Protocol: (i) Perfused stomach preparation of anesthetized rat [according to M. N. Ghosh and H. O. Schild: Brit. J. Pharmacol. 13, 54 (1958)]
Wistar strain rats (male, 200 to 250 g) starved for 18 hours were anesthetized with urethane and then subjected to laparotomy, after which the forestomach region of the stomach of each rat was incised. The whole interior of the stomach was sufficiently washed with physiological saline, and the cut edges were sutured. A silicon tube was inserted into the stomach to a length of about 5 mm from the duodenum side and fixed. Subsequently, the stomach was perfused with physiological saline adjusted to a pH of about 10 with an aqueous sodium hydroxide solution at a constant rate (1 ml/min) through an oral sonde, and the change in pH of the perfusate which had flowed out through the silicone tube was continuously recorded. During the perfusion, histamine (30 μg/kg/min) was continuously injected, as an agent for stimulating gastric acid secretion, through the femoral vein at a rate of 0.3 ml/min. Each drug was intravenously administered when the acid secretion became almost constant (pH 3.3±0.2), and cumulatively administered when the inhibition of acid secretion at each dose reached a plateau.
The number of experiments was three for each dose.

[2] = test system: gastric acid secretion; experiment: Inhibitory effect on gastric acid secretion, pylorus ligation method (histamine); format: in vivo, Wistar strain rats; settings: Rattus norvegicus, oral, histamine 25 mg/kg s.c., read-out: Inhibition percentage (gastric acid secretion)
Protocol: Five to six Wistar strain rats (male, 190 to 230 g) per group were starved for 35 hours, after which each drug was orally administered, and after 2 hours, the pylorus of each rat was ligated under ether anesthesia. […] After 3 hours, each rat was killed, after which the cardiac portion was ligated, and the stomach was removed. After 1 ml of distilled water was injected into the stomach, the gastric juice was collected by centrifugation and its volume was measured. The acidity of the gastric juice was measured by titrating 1 ml of the gastric juice with a 0.1N aqueous sodium hydroxide solution, taking pH 7.0 as the end-point. Physiological saline was administered to a control group.
The inhibition percentage of gastric acid secretion was determined from the following equation: [formula]

| Structure (SMILES) | ED100 [1] [mg/kg] | Duration [1] [min] | inhibition in vivo at 3 mg/kg [2] [%] | inhibition in vivo at 1 mg/kg [2] [%] |
| --- | --- | --- | --- | --- |
| N#CNC(=NCC(O)c1ccccc1)NCCSCc1csc(NC(=N)N)n1 (stereo not drawn) [compound 1, N-cyano-N'-{2-[(2-guanidino-4-thiazolyl)methylthio]ethyl}-N"-(β-hydroxyphenethyl)guanidine] | 0.3 | > 210 |  |  |
| NC(N)=Nc1nc(CSCCNC(=C[N+](=O)[O-])NCC(O)c2ccccc2)cs1 (centres unmarked) [compound 2] | 0.1 | > 160 |  |  |
| CN(C)Cc1ccc(CSCCNC(=C[N+](=O)[O-])NCC(O)c2ccc(Cl)cc2)o1 (centres unmarked) [compound 5, N-[2-(4-chlorophenyl)-2-hydroxyethyl]-N'-{2-[[5-(dimethylamino)methyl-2-furyl]methylthio]ethyl}-2-nitro-1,1-ethenediamine] | 0.1 | 192 | 80 |  |
| CN(C)Cc1ccc(CSCCNC(=C[N+](=O)[O-])NCC(O)c2cccnc2)o1 (centres unmarked) [compound 8, N-{2-[[5-(dimethylamino)methyl-2-furyl]methylthio]ethyl}-N'-[2-hydroxy-2-(3-pyridyl)ethyl]-2-nitro-1,1-ethenediamine] | 0.3 | 200 |  |  |
| Cc1cc(CSCCNC(=C[N+](=O)[O-])NCC(O)c2ccc(O)cc2)sc1CN(C)C (centres unmarked) [compound 10, N-{2-[[5-(dimethylamino)methyl-4-methyl-2-thienyl]methylthio]ethyl}-N'-[2-hydroxy-2-(4-hydroxyphenyl)ethyl]-2-nitro-1,1-ethenediamine] | 0.18 | 175 |  |  |
| O=[N+]([O-])C=C(NCCCOc1cccc(CN2CCCCC2)c1)NCC(O)c1cccnc1 (centres unmarked) [compound 19, N-[2-hydroxy-2-(3-pyridyl)ethyl]-2-nitro-N'-[3-(3-piperidinomethylphenoxy)propyl]-1,1-ethenediamine] | 0.1 | 164 |  |  |
| O=[N+]([O-])C=C(NCCCOc1cccc(CN2CCCCC2)c1)NCC(O)c1ccc([N+](=O)[O-])cc1 (centres unmarked) [compound 20, N-[2-hydroxy-2-(4-nitrophenyl)ethyl]-2-nitro-N'-[3-(3-piperidinomethylphenoxy)propyl]-1,1-ethenediamine] |  | > 210 |  |  |
| CS(=O)(=O)NC(=NCCCOc1cccc(CN2CCCCC2)c1)NCC(O)c1ccccc1 (stereo not drawn) [compound 21, N-(β-hydroxyphenethyl)-N'-methanesulfonyl-N"-[3-(3-piperidinomethylphenoxy)propyl]guanidine] | 0.1 | > 240 |  |  |
| CN(C)Cc1ccc(CSCCNC(=C[N+](=O)[O-])NC[C@@H](O)c2ccc(O)cc2)o1 [compound 22, N-{2-[[5-(dimethylamino)methyl-2-furyl]methylthio]ethyl}-N'-[S(+)-2-hydroxy-2-(4-hydroxyphenyl)ethyl]-2-nitro-1,1-ethenediamine] | 0.04 | 136 |  |  |
| COc1cccc(C(O)CNC(=C[N+](=O)[O-])NCCSCc2ccc(CN(C)C)o2)c1 (centres unmarked) [compound 23, N-{2-[[5-(dimethylamino)methyl-2-furyl]methylthio]ethyl}-N'-[2-hydroxy-2-(3-methoxyphenyl)ethyl]-2-nitro-1,1-ethenediamine] | 0.15 | 242 |  |  |
| CSc1ccc(C(O)CNC(=C[N+](=O)[O-])NCCSCc2ccc(CN(C)C)o2)cc1 (centres unmarked) [compound 24, N-{2-[[5-(dimethylamino)methyl-2-furyl]methylthio]ethyl}-N'-[2-hydroxy-2-(4-methylthiophenyl)ethyl]-2-nitro-1,1-ethenediamine] | 0.2 | > 240 |  |  |
| CN(C)Cc1ccc(CSCCNC(=C[N+](=O)[O-])NCC(O)c2ccc(F)c(F)c2)o1 (centres unmarked) [compound 25, N-{2-[[5-(dimethylamino)methyl-2-furyl]methylthio]ethyl}-N'-[2-(3,4-difluorophenyl)-2-hydroxyethyl]-2-nitro-1,1-ethenediamine] | 0.1 | > 240 |  |  |
| CSc1ccc(C(O)CNC(=C[N+](=O)[O-])NCCCOc2cccc(CN3CCCCC3)c2)cc1 (centres unmarked) [compound 26, N-[2-hydroxy-2-(4-methylthiophenyl)ethyl]-2-nitro-N'-[3-(3-piperidinomethylphenoxy)propyl]-1,1-ethenediamine] | 0.3 | > 240 |  |  |
| O=[N+]([O-])C=C(NCCCOc1cccc(CN2CCCCC2)c1)NCC(O)c1cccc(C(F)(F)F)c1 (centres unmarked) [compound 27, N-[2-hydroxy-2-(3-trifluoromethylphenyl)ethyl]-2-nitro-N'-[3-(3-piperidinomethylphenoxy)propyl]-1,1-ethenediamine] | 0.3 | > 210 |  |  |
| Cc1cc(CSCCNC(=C[N+](=O)[O-])NCC(O)c2cccc(Cl)c2)sc1CN(C)C (centres unmarked) [compound 28, N-[2-(3-chlorophenyl)-2-hydroxyethyl]-N'-{2-[[5-(dimethylamino)methyl-4-methyl-2-thienyl]methylthio]ethyl}-2-nitro-1,1-ethenediamine] | 0.1 | 205 |  |  |
| O=[N+]([O-])C=C(NCCCOc1cccc(CN2CCCCC2)c1)NCC(O)c1ccc(F)c(F)c1 (centres unmarked) [compound 30, N-[2-(3,4-difluorophenyl)-2-hydroxyethyl]-2-nitro-N'-[3-(3-piperidinomethylphenoxy)propyl]1,1-ethenediamine] | 0.15 | > 240 |  |  |
| CCc1cccc(C(O)CNC(=C[N+](=O)[O-])NCCSCc2cc(C)c(CN(C)C)s2)c1 (centres unmarked) [compound 31, N-{2-[[5-(dimethylamino)methyl-4-methyl-2-thienyl]methylthio]ethyl}-N'-[2-(3-ethylphenyl)-2-hydroxyethyl]-2-nitro-1,1-ethenediamine] | 0.3 | 226 |  |  |
| Cc1cc(CSCCNC(=C[N+](=O)[O-])NCC(O)c2c(F)cccc2F)sc1CN(C)C (centres unmarked) [compound 34, N-{2-[[5-(dimethylamino)methyl-4-methyl-2-thienyl]methylthio]ethyl}-N'-[2-(2,6-difluorophenyl)-2-hydroxyethyl]-2-nitro-1,1-ethenediamine] |  |  | 71 |  |
| Cc1cc(CSCCNC(=C[N+](=O)[O-])NCC(O)c2ccc(F)cc2F)sc1CN(C)C (centres unmarked) [compound 35, N-{2-[[5-(dimethylamino)methyl-4-methyl-2-thienyl]methylthio]ethyl}-N'-[2-(2,4-difluorophenyl)-2-hydroxyethyl]-2-nitro-1,1-ethenediamine] |  |  |  | 47 |
| O=[N+]([O-])C=C(NCCCOc1cccc(CN2CCCCC2)c1)NCC(O)c1ccccc1F (centres unmarked) [compound 36, N-[2-(2-fluorophenyl)-2-hydroxyethyl]-2-nitro-N'-[3-(3-piperidinomethylphenoxy)propyl]-1,1-ethenediamine] |  |  | 85 |  |
| COc1ccc(C(O)CNC(=C[N+](=O)[O-])NCCSCc2ccc(CN(C)C)o2)cc1 (centres unmarked) [compound 37, N-{2-[[5-(dimethylamino)methyl-2-furyl]methylthio]ethyl}-N'-[2-hydroxy-2-(4-methoxyphenyl)ethyl]-2-nitro-1,1-ethenediamine] |  |  | 77 |  |
| CN(C)Cc1ccc(CSCCNC(=C[N+](=O)[O-])NCC(O)c2ccc(F)cc2)o1 (centres unmarked) [compound 38, N-{2-[[5-(dimethylamino)methyl-2-furyl]methylthio]ethyl}-N'-[2-(4-fluorophenyl)-2-hydroxyethyl]-2-nitro-1,1-ethenediamine] |  |  |  | 41 |
| Cc1ccccc1C(O)CNC(=C[N+](=O)[O-])NCCSCc1ccc(CN(C)C)o1 (centres unmarked) [compound 39, N-{2-[[5-(dimethylamino)methyl-2-furyl]methylthio]ethyl}-N'-[2-hydroxy-2-(2-methylphenyl)ethyl]-2-nitro-1,1-ethenediamine] |  |  | 90 |  |
| Cc1cc(CSCCNC(=C[N+](=O)[O-])NCC(O)c2ccc(F)cc2)sc1CN(C)C (centres unmarked) [compound 41, N-{2-[[5-(dimethylamino)methyl-4-methyl-2-thienyl]methylthio]ethyl}-N'-[2-(4-fluorophenyl)-2-hydroxyethyl]-2-nitro-1,1-ethenediamine] |  |  |  | 65 |
| O=[N+]([O-])C=C(NCCCOc1cccc(CN2CCCCC2)c1)NCC(O)c1cccc(F)c1 (centres unmarked) [compound 43, N-[2-(3-fluorophenyl)-2-hydroxyethyl]-2-nitro-N'-[3-(3-piperidinomethylphenoxy)propyl]-1,1-ethenediamine] |  |  |  | 51 |
| Cc1ccccc1C(O)CNC(=C[N+](=O)[O-])NCCCOc1cccc(CN2CCCCC2)c1 (centres unmarked) [compound 44, N-[2-hydroxy-2-(2-methylphenyl)ethyl]-2-nitro-N'-[3-(3-piperidinomethylphenoxy)propyl]-1,1-ethenediamine] |  |  |  | 75 |
| Nc1ccc(C(O)CNC(=C[N+](=O)[O-])NCCCOc2cccc(CN3CCCCC3)c2)cc1 (centres unmarked) [compound 45, N-[2-(4-aminophenyl)-2-hydroxyethyl]-2-nitro-N'-[3-(3-piperidinomethylphenoxy)propyl]-1,1-ethenediamine] |  |  |  | 65 |
